We go through twelve molecules from patent US7285548B2, “Urea substituted benzothiazoles” (Hoffmann-La Roche Inc., priority 2003, dated 2007).

Each structure is given as a SMILES string.

For series [1], the target named is T1, human adenosine A2A receptor (Homo sapiens, UniProt P29274).
T1 construct: expressed in transfected cells; host or cells: CHO cells, semliki forest virus expression system; membrane preparation
The series is described as follows: [3H]-SCH-58261 binding assay, human adenosine A2A receptor (CHO cell membranes, SPA). Particulars: recombinant human A2A receptor in CHO membranes; [3H]-SCH-58261 1 nM; Ki by Cheng-Prussoff equation; read-out: hA2 (pKi) (converted). The protocol: Human Adenosine A2A Receptor
The human adenosine A2A receptor was recombinantly expressed in Chinese hamster ovary (CHO) cells using the semliki forest virus expression system. Cells were harvested, washed twice by centrifugation, homogenized and again washed by centrifugation. The final washed membrane pellet was suspended in a Tris (50 mM) buffer containing 120 mM NaCl, 5 mM KCl, 2 mM CaCl2 and 10 mM MgCl2 (pH 7.4) (buffer A). The [^3H]-SCH-58261 (Dionisotti et al., 1997, Br J Pharmacol 121, 353; 1nM) binding assay was carried out in 96-well plates in the presence of 2.5 μg of membrane protein, 0.5 mg of Ysi-poly-l-lysine SPA beads and 0.1 U adenosine deaminase in a final volume of 200 μl of buffer A. Non-specific binding was defined using xanthine amine congener (XAC; 2 μM). Compounds were tested at 10 concentrations from 10 μM-0.3 nM. All assays were conducted in duplicate and repeated at least two times. Assay plates were incubated for 1 hour at room temperature before centrifugation and then bound ligand determined using a Packard Topcount scintillation counter. IC50 values were calculated using a non-linear curve fitting program and Ki values calculated using the Cheng-Prussoff equation.

T1 sequence (P29274 whole entry): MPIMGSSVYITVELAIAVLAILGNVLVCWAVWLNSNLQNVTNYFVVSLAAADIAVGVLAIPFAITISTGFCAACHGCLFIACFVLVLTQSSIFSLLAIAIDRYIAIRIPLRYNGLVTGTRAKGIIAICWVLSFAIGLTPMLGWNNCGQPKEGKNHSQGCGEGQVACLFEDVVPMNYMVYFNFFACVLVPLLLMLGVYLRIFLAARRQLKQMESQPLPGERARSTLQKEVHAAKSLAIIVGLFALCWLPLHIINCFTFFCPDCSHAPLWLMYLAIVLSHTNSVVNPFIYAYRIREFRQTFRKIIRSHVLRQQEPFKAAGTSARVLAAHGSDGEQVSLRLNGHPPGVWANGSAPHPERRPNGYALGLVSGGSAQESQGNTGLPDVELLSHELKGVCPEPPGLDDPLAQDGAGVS

As a reminder, the melting point is the temperature of the solid-liquid transition. As to `COc1ccc(N2CCOCC2)c2sc(NC(=O)N(C)C3CCC(C(F)(F)F)CC3)nc12` (stereo not drawn) [Example 1, 3-(4-Methoxy-7-morpholin-4-yl-benzothiazol-2-yl)-1-methyl-1-(4-trifluoromethyl-cyclohexyl)-urea], the melting point fell in the range of 157 to 167 °C. For the same molecule, the Ki in series [1] was 20 nM.

`COc1ccc(N2CCOCC2)c2sc(NC(=O)N(C)C3CC4CC3CC4O)nc12` (racemic) [Example 10, (rac)-1-(5-exo-Hydroxy-bicyclo[2.2.1]hept-2-exo-yl)-3-(4-methoxy-7-morpholin-4-yl-benzothiazol-2-yl)-1-methyl-urea]: the melting point was found to be 189 °C. Further, the Ki in series [1] is 7.94 nM.

In turn, `COc1ccc(N2CCOCC2)c2sc(NC(=O)N(C)C34CC5CC(CC(C5)C3)C4)nc12` [Example 12, 1-Adamantan-1-yl-3-(4-methoxy-7-morpholin-4-yl-benzothiazol-2-yl)-1-methyl-urea] displayed a melting point of 165 to 176 °C. Moreover, the Ki in series [1] was 50.1 nM.

For `COc1ccc(N2CCOCC2)c2sc(NC(=O)N(C)[C@H]3CC[C@H](CO)CC3)nc12` [Example 3, (trans)-1-(4-Hydroxymethyl-cyclohexyl)-3-(4-methoxy-7-morpholin-4-yl-benzothiazol-2-yl)-1-methyl-urea], the melting point is 190 °C (dec.). Further, the Ki in series [1] was 15.8 nM.

`COc1ccc(N2CCOCC2)c2sc(NC(=O)N(C)C3CC4CCC3O4)nc12` (single isomer, unassigned) [Example 7, (exo)-(+)-3-(4-Methoxy-7-morpholin-4-yl-benzothiazol-2-yl)-1-methyl-1-(7-oxa-bicyclo[2.2.1]hept-2-yl)-urea] came in with a melting point of 202 to 204 °C. In addition, the Ki in series [1] was 3.16 nM.

As for `COc1ccc(N2CCOCC2)c2sc(NC(=O)N(C)C3CC4CCC3C4)nc12` (racemic) [Example 6, 1-(endo)-(rac)-Bicyclo[2.2.1]hept-2-yl-3-(4-methoxy-7-morpholin-4-yl-benzothiazol-2-yl)-1-methyl-urea], the melting point lay within 199 to 202 °C. Besides, the Ki in series [1] is 7.94 nM.

`COc1ccc(N2CCOCC2)c2sc(NC(=O)N(C)C3CC4CCC3O4)nc12` (racemic) [Example 9, (rac)-(endo)-3-(4-Methoxy-7-morpholin-4-yl-benzothiazol-2-yl)-1-methyl-1-(7-oxa-bicyclo[2.2.1]hept-2-yl)-urea] gave a melting point of 191 to 193 °C. Besides, the Ki in series [1] was 12.6 nM.

Take `COc1ccc(N2CCOCC2)c2sc(NC(=O)N(C)C3CC4CCC3O4)nc12` (single isomer, unassigned) [Example 8, (exo)-(−)-3-(4-Methoxy-7-morpholin-4-yl-benzothiazol-2-yl)-1-methyl-1-(7-oxa-bicyclo[2.2.1]hept-2-yl)-urea]: the melting point fell in the range of 202 to 203 °C. Also, in series [1], the Ki was 10 nM.

In turn, `COc1ccc(N2CCOCC2)c2sc(NC(=O)N(C)[C@H]3CC[C@H](C)CC3)nc12` [Example 2, (trans)-3-(4-Methoxy-7-morpholin-4-yl-benzothiazol-2-yl)-1-methyl-1-(4-methyl-cyclohexyl)-urea] came in with a melting point of 171 to 173 °C. The Ki in series [1] was 15.8 nM.

Molecule `COC[C@H]1CC[C@H](N(C)C(=O)Nc2nc3c(OC)ccc(N4CCOCC4)c3s2)CC1` [Example 4, (trans)-1-(4-Methoxymethyl-cyclohexyl)-3-(4-methoxy-7-morpholin-4-yl-benzothiazol-2-yl)-1-methyl-urea] returned a melting point of 141 to 143 °C. Besides, the Ki in series [1] was 20 nM.

In turn, `COc1ccc(N2CCOCC2)c2sc(NC(=O)N(C)C3CCC(CO)C3)nc12` (racemic) [Example 5, (rac),(cis)-1-(3-Hydroxymethyl-cyclopentyl)-3-(4-methoxy-7-morpholin-4-yl-benzothiazol-2-yl)-1-methyl-urea] had a melting point of 115 to 118 °C. Also, in series [1], the Ki was 3.98 nM.

Molecule `COc1ccc(N2CCOCC2)c2sc(NC(=O)N3CC4CCC(C3)O4)nc12` [Example 13, 8-Oxa-3-aza-bicyclo[3.2.1]octane-3-carboxylic acid (4-methoxy-7-morpholin-4-yl-benzothiazol-2-yl)-amide] came in with a melting point of 229 to 231 °C. The Ki in series [1] is 10 nM.
